System: Rh18 complex spheroid viability, percent test/control
Assay: Anticancer human tumor Rh18 cell line growth inhibition [Asc];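 also: spheroids exposed to compound for 7 days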;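 as to viability, T/C: 100% = DMSO vehicle control wells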
Conditions: for IC50: curve of first compound; for viability, T/C: stronger effect = lower value
Procedure, shortened: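 Complex spheroids combining tumor cells with HUVEC endothelial cells and human MSCs, at 37 degrees C, 5% CO2; agents tested alone or combined, half-log dilutions from at or near clinical Cmax, or 10 microM if Cmax unknown.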

C=C(F)C(=O)N1CCN(c2nc(OCC3CCCN3C)nc3c2CCN(c2cccc4cccc(Cl)c24)C3)CC1CC#N (stereo not given) + Cc1c(S(C)(=O)=O)c(-c2cc(F)cc(N3CCN(c4ccc(NS(=O)(=O)c5ccc(NC(CCN6CCC(C(=O)OCCCP(=O)(O)O)CC6)CSc6ccccc6)c(S(=O)(=O)C(F)(F)F)c5)cc4)CC3)c2)c(-c2ccc(Cl)cc2)n1C(C)C
IC50 (second compound 0.1 µM): < 31.6 nM
IC50 (second compound 0.316 µM): < 31.6 nM
IC50 (second compound 1 µM): < 31.6 nM
IC50 (second compound 3.16 µM): < 31.6 nM
IC50 (second compound 10 µM): < 31.6 nM
viability, T/C (second compound 0.1 µM, first compound 0.0316 µM): 13.9%
viability, T/C (second compound 0.1 µM, first compound 0.1 µM): 14.1%
viability, T/C (second compound 0.1 µM, first compound 0.316 µM): 16.8%
viability, T/C (second compound 0.1 µM, first compound 1 µM): 18.4%
viability, T/C (second compound 0.1 µM, first compound 3.16 µM): 4.57%
viability, T/C (second compound 0.1 µM, first compound 10 µM): 0.19%
viability, T/C (second compound 0.316 µM, first compound 0.0316 µM): 6.98%
viability, T/C (second compound 0.316 µM, first compound 0.1 µM): 8.95%
viability, T/C (second compound 0.316 µM, first compound 0.316 µM): 10.2%
viability, T/C (second compound 0.316 µM, first compound 1 µM): 10.4%
viability, T/C (second compound 0.316 µM, first compound 3.16 µM): 1.87%
viability, T/C (second compound 0.316 µM, first compound 10 µM): 0.13%
viability, T/C (second compound 1 µM, first compound 0.0316 µM): 7.24%
viability, T/C (second compound 1 µM, first compound 0.1 µM): 8.76%
viability, T/C (second compound 1 µM, first compound 0.316 µM): 10.9%
viability, T/C (second compound 1 µM, first compound 1 µM): 8.02%
viability, T/C (second compound 1 µM, first compound 3.16 µM): 0.6%
viability, T/C (second compound 1 µM, first compound 10 µM): 0.14%
viability, T/C (second compound 3.16 µM, first compound 0.0316 µM): 7.34%
viability, T/C (second compound 3.16 µM, first compound 0.1 µM): 7.03%
viability, T/C (second compound 3.16 µM, first compound 0.316 µM): 8.15%
viability, T/C (second compound 3.16 µM, first compound 1 µM): 4.6%
viability, T/C (second compound 3.16 µM, first compound 3.16 µM): 0.19%
viability, T/C (second compound 3.16 µM, first compound 10 µM): 0.18%
viability, T/C (second compound 10 µM, first compound 0.0316 µM): 4.96%
viability, T/C (second compound 10 µM, first compound 0.1 µM): 5.5%
viability, T/C (second compound 10 µM, first compound 0.316 µM): 5.96%
viability, T/C (second compound 10 µM, first compound 1 µM): 4.82%
viability, T/C (second compound 10 µM, first compound 3.16 µM): 0.38%
viability, T/C (second compound 10 µM, first compound 10 µM): 0.23%

Reference: PubChem BioAssay AID1963431 (Molecular Pharmacology Branch, DTP, NCI, 2024)
